In ChEMBL document CHEMBL1201862, “PubChem BioAssay data set” (2004):
Calls of active or inactive are those of the source. Unless noted, the rule behind the calls is not given here.

Columns and labels:
Kallikrein-7 = Kallikrein-7 (Homo sapiens, UniProt P49862); experiment: Fluorescence Intensity-based biochemical primary high throughput dose response assay to identify activators of kallikrein-7 (K7) zymogen.
[1] = BHK-21 cell cytotoxicity, cytotoxicity control for flavivirus guanylyltransferase probe project, secondary screen (AID 624078); assay type: functional
Protein Wnt-3a = Protein Wnt-3a (Mus musculus, UniProt P27467); experiment: SAR analysis of small molecule antagonists of Gli-SUFU in a Wnt3a luminescent reporter assay.; assay type: functional
[2] = HEK293T cytotoxicity, dose response, cytotoxicity control for miR-122 modulator project, cell-based, inhibitor set, cherry-pick, set 2 (AID 720697); assay type: functional
[3] = HEK293T cytotoxicity, dose response, cytotoxicity control for miR-122 modulator project, cell-based, activator set, cherry-pick (AID 720690); assay type: functional;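 also: HEK293T human cells scored for general mammalian cytotoxicity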
[4] = PAX2 cell-based inhibition, dose response, selectivity assay for PAX8 inhibitor project, plate reader, dry powder samples (AID 743048); assay type: functional;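 also: HEK293 cells carrying a WT1 promoter luciferase reporter driven by expressed Pax2; potency is for inhibition of Pax2 driven reporter signal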
[5] = cytotoxicity in COV434 cells, dose response, cytotoxicity control for PAX8 inhibitor project, cell-based, plate reader, dry powder, SA7 (AID 743145); assay type: functional
[6] = cytotoxicity dependent on PAX8, dose response, cell-based, plate reader, dry powder (AID 743049); assay type: functional
[7] = inhibitors of non-replicating M. tuberculosis, dose response, luciferase, dry powder (AID 651619); assay type: functional; conditions: Mycobacterium tuberculosis
[8] = inhibitors of non-replicating M. tuberculosis, dose response, luciferase, dry powder (AID 651620); assay type: functional; conditions: Mycobacterium tuberculosis
[9] = cytotoxicity in A549 cells, dose response, cytotoxicity control, cell-based, cherry-picked samples (AID 1053184); assay type: functional
[10] = molecular target: Kappa-type opioid receptor (Homo sapiens, UniProt P41145); experiment: Late-stage fluorescence-based cell-based dose response assay for antagonists of kappa opioid receptor 1 (OPRK1).; assay type: functional
Mu-type opioid receptor = Mu-type opioid receptor (Homo sapiens, UniProt P35372); experiment: Late-stage results from the probe development effort to identify antagonists of OPRK1: luminescence-based cell-based dose response OPRM1 counterscreen, Set 2.; assay type: functional
[11] = molecular target: Delta-type opioid receptor (Homo sapiens, UniProt P41143); experiment: Late-stage results from the probe development effort to identify antagonists of OPRK1: fluorescence-based cell-based dose response OPRD1 counterscreen, Set 2.; assay type: functional
[12] = molecular target: Sphingosine 1-phosphate receptor 1 (Homo sapiens, UniProt P21453); experiment: Late-stage counterscreen for antagonists of kappa opioid receptor 1 (OPRK1): fluorescence-based cell-based dose response assay to identify antagonists of Sphingosine 1-Phosphate Receptor 1 (S1P1).; assay type: functional
Sequence of Sphingosine 1-phosphate receptor 1 (P21453 whole entry): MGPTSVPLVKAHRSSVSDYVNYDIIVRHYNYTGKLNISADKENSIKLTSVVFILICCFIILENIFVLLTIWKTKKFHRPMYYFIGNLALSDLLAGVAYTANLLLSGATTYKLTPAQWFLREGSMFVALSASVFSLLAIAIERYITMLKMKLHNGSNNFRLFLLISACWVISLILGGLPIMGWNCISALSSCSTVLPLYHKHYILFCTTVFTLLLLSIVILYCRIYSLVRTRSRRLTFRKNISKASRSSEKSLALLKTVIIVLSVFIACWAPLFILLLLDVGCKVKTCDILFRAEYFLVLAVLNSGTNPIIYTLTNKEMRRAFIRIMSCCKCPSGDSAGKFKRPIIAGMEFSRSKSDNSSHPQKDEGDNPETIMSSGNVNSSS

Sequence of Delta-type opioid receptor (P41143 whole entry): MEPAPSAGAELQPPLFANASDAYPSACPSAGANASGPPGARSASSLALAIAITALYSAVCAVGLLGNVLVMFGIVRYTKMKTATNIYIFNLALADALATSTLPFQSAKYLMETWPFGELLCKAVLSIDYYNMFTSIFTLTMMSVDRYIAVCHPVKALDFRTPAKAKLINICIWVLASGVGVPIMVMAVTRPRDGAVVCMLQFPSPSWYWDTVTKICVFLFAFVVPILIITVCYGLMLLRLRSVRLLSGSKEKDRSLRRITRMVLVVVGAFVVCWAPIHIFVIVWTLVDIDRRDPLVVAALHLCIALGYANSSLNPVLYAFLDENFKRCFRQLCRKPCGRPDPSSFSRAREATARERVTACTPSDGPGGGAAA
Sequence of Protein Wnt-3a (P27467 whole entry): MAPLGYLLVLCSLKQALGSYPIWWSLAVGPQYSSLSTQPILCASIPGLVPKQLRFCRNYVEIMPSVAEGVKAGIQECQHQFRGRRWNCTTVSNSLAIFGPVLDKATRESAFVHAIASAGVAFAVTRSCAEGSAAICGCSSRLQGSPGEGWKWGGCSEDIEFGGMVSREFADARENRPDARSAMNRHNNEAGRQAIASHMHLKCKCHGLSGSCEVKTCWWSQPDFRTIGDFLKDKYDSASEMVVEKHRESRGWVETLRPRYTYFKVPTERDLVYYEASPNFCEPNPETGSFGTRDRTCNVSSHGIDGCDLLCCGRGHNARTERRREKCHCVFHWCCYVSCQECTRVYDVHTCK
Sequence of Mu-type opioid receptor (P35372 whole entry): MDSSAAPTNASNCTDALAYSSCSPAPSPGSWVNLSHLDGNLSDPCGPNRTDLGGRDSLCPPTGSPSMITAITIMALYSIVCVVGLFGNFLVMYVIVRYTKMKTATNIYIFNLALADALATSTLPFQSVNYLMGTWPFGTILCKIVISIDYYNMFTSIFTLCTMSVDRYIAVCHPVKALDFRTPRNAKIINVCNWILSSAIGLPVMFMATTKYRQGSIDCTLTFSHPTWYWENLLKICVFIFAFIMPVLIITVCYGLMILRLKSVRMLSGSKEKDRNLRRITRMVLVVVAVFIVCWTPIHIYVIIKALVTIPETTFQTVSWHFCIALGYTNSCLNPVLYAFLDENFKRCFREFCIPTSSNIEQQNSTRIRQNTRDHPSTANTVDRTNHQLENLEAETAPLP
Sequence of Kappa-type opioid receptor (P41145 whole entry): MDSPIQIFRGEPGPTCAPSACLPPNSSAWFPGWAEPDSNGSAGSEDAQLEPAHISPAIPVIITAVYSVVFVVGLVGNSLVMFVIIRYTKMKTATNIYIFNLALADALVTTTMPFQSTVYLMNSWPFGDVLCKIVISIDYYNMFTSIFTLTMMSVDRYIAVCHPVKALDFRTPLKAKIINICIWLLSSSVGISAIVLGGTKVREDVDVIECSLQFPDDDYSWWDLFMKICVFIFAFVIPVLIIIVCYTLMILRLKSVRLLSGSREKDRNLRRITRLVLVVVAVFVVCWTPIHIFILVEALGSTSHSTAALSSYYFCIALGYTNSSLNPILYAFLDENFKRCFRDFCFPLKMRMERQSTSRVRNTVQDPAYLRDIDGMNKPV
Sequence of Kallikrein-7 (P49862 whole entry): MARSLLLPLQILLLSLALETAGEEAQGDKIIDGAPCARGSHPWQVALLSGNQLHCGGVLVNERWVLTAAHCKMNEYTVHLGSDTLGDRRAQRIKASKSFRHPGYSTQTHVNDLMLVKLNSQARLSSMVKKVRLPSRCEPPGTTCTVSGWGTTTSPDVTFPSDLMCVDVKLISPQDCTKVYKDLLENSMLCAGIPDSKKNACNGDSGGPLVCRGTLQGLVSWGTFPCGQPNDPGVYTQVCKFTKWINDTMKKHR

Question: With C=C(C)Cn1c2ccc(NC(=O)NCc3ccccc3)cc2c(=O)n1C as the compound, how does the EC50 (Kallikrein-7) read?
Answer: > 69.5 µM (inactive)

Question: For Cc1ccc(S(=O)(=O)Nc2cc(Sc3nc(C)cc(C)n3)c(O)c3ccccc23)cc1, which CC50 [1] is on record?
Answer: 20.9 µM (active)

Question: Which IC50 (Protein Wnt-3a) does the source give for O=C(Nc1cc(N2CCCC2)ncn1)c1ccccc1F here?
Answer: 0.696 µM (active)

Question: With C[C@@H]1CN([C@@H](C)CO)S(=O)(=O)c2ccc(-c3cncnc3)cc2O[C@@H]1CN(C)Cc1ccc(Oc2ccccc2)cc1 as the compound, how does the AC50 [2] read?
Answer: 22.7 µM (active)

Question: And the AC50 [3]?
Answer: 24.9 µM (active)

Question: With COCC(=O)N1[C@H](CO)[C@H](c2ccc(-c3cccnc3)cc2)[C@@H]1C#N as the compound, how does the AC50 [4] read?
Answer: > 32 µM (inactive)

Question: And the AC50 [5]?
Answer: 0.00824 µM (active)

Question: What about the AC50 [6] of the same compound?
Answer: > 70 µM (inactive)

Question: Which IC90 [7] does the source give for Fc1ccc(CSc2nnc(-c3ccc(Cl)cc3)o2)cc1 here?
Answer: 2 µM (active)

Question: And the IC90 [8]?
Answer: 2 µM (active)

Question: For C[C@@H]1CN([C@@H](C)CO)C(=O)Cc2cc(NC(=O)C3CCCCC3)ccc2O[C@@H]1CN(C)Cc1ccc(Cl)c(Cl)c1, which AC50 [9] is on record?
Answer: 37.8 µM (active)

Question: With Clc1ccc2c(Nc3ccc4c(c3)OCO4)ccnc2c1 as the compound, how does the IC50 [10] read?
Answer: 13.8 µM (inactive)

Question: What about the IC50 (Mu-type opioid receptor) of the same compound?
Answer: > 50 µM (inactive)

Question: What about the IC50 [11] of the same compound?
Answer: > 50 µM (inactive)

Question: And the IC50 [12]?
Answer: > 50 µM (inactive)
